Tests used:
SIK1 = target: T1, SIK1 (Homo sapiens, UniProt P57059); assay: ADP-Glo kinase assay, SIK1; type: biochemical
T1 construct: purchased Carna Biosciences 02-131
Procedure, shortened: (§1)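 Steps: add enzyme–substrate mixture; start with diluted ATP; incubate RT 120 min; add ADP-Glo Reagent to terminate and remove unconsumed ATP, 40 min; add detection reagent, 30 min; read luminescence. DMSO at 1% and staurosporine at 10 μM (final) define assay windows.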

SIK2 = target: T2, SIK2 (Homo sapiens, UniProt Q9H0K1); assay: ADP-Glo kinase assay, SIK2; type: biochemical
T2 construct: purchased ThermoFisher Scientific PV4792
Procedure, shortened: as §1

SIK3 = target: T3, SIK3 (Homo sapiens, UniProt Q9Y2K2); assay: ADP-Glo kinase assay, SIK3; type: biochemical
T3 construct: purchased SignalChem S12-11G-100
Procedure, shortened: as §1

[1] = system: LPS-induced TNFα in monocytes; assay: Monocytes assay: LPS-triggered TNFα (ELISA); type: cell-based, human; conditions: Homo sapiens, Monocyte, LPS-triggered TNFα inhibition
Experimental: This assay evaluates illustrative compounds of the invention for their inhibition of LPS-induced TNFα and LPS triggered IL-10 secretion in monocytes.
PBMCs are isolated from human blood samples (buffycoats). The buffy coat is aseptically transferred into a 50 mL Falcon tube, and diluted 1/2 in PBS. Falcon tubes are filled with 20 mL Lymphoprep™, on top of which 25 mL of the buffy coat is carefully added, tubes are centrifuged for 35 min at 400 g in temperature controlled centrifuge, without brake, at 25° C. PBMCs are aspirated from the white interface layer between sample and Lymphoprep™. PBMCs are washed five times in PBS.
PBMCs are centrifuged at 300×g for 10 min and resuspended at a density of 1.0*10^7 cells/80 μL Miltenyi buffer (PBS, pH 7.4, 1% FBS, 2 mM EDTA).
Starting from this point of the protocol all steps are performed on ice. 20 μL of CD14+ micro-beads are added per 1.0*10^7 cells, the tube is mixed and incubated for 15 min in the fridge at 4° C. Cell suspension volume is adjusted to total volume of 100 mL using Miltenyi buffer, mixed gently and subsequently centrifuged for 10 min at 300×g. Supernatant is discarded and cell pellet is resuspended in 12 mL of Miltenyi buffer.
Four LS columns are placed in the MACS Separator (magnet) from Miltenyi Biotec, and are prewet by rinsing with 3 mL of MACS buffer per column. Three mL of cell suspension is added onto the column (max 1*10^8 of labelled cells/column), and columns are subsequently washed 3 times with 3 mL of Miltenyi buffer.
The columns are removed from the magnets, and 5 mL of Miltenyi buffer are added to the column to flush out the CD14+ fraction by pushing the plunger into the column. The flushed fractions are collected in a fresh 50 mL Falcon and volume is adjusted to 30 mL using Miltenyi buffer, cells are centrifuged for 10 min at 300×g. The obtained cell pellet is resuspended in 10 mL RPMI w/o FBS, and cell density is determined using a hematologic analyser (Sysmex XS-500i).
A compound dilution plate is made in 100% DMSO by 3-fold dilution of 10 mM stock solution. An intermediate dilution plate (10× final concentration) is made by diluting the compound dilution plate 50-fold in RPMI medium.
10 μL of the 10× final concentration compound is added to the cells and incubated for 1 h at 37° C. before addition of trigger. No trigger conditions/trigger conditions are spiked with equal final DMSO concentrations of 0.2% DMSO. 10 μL of 10×LPS (final conc. 200 ng/mL) solution are added to all wells except for the ‘no trigger wells’ where 10 μL medium is added. Supernatant is collected after 4 h of LPS triggering.
The plate is then washed once with PBST (PBS+0.05% Tween20) and once with PBS followed by the addition of 100 μL of blocking buffer (1% Bovine Serum Albumin (BSA)-5% Sucrose) and plates are sealed and incubated for at least 4 h at RT. After washing the plate once with PBST and once with PBS, […]. Plates are washed twice with PBST, and once with PBS, after which 35 μL of the detection antibody is added (final concentration 0.25 μg/mL diluted in dilution buffer) and plates are incubated for at least 2 h at RT. Plates are washed twice with PBST, and once with PBS, whereafter 35 μL of Strep-HRP conjugate (0.5 μg/mL final concentration diluted in dilution buffer) is added. Plates are incubated in the dark, at RT for at least 45 min but no longer than 1 h. Plates are washed twice with PBST, and once with PBS. Thereafter, 50 μL of luminol substrate is added to each well (prepared according to manufacturer's instructions), and incubated for 5 min at RT protected from light.
To measure the inhibition of LPS induced TNFα, percentage inhibition (PIN) values are calculated for all concentrations tested, compared to controls.

T1 sequence (P57059 whole entry): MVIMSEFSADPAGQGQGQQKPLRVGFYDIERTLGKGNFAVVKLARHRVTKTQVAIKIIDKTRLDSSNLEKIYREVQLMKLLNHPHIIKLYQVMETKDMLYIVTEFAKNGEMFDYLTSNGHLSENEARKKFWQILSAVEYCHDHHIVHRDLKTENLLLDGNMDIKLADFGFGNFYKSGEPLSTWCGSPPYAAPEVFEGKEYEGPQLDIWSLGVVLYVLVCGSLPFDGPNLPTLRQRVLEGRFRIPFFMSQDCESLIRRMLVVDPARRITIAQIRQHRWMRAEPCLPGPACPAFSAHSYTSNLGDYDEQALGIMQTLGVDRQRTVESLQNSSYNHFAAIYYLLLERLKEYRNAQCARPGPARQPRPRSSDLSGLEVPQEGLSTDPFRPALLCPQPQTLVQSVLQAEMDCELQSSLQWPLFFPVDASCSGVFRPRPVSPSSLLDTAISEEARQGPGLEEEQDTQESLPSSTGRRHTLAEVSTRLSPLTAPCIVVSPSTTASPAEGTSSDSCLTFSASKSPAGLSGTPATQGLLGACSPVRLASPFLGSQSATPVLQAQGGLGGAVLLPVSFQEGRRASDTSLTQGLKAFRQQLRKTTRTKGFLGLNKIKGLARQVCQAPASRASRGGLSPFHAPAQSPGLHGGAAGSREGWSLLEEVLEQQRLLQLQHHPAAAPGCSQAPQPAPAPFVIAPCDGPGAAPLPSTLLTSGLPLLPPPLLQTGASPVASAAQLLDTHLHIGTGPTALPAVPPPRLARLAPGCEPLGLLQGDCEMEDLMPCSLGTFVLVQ
T3 sequence (Q9Y2K2 59-365 limits assumed): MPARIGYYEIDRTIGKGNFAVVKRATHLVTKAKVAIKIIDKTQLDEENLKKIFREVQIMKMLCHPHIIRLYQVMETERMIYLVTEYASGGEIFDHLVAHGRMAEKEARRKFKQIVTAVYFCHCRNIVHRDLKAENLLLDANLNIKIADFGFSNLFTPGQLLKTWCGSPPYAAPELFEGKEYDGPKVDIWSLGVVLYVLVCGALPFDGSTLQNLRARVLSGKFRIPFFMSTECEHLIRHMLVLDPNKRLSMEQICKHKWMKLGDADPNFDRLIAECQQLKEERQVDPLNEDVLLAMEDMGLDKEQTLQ
T2 sequence (Q9H0K1 whole entry): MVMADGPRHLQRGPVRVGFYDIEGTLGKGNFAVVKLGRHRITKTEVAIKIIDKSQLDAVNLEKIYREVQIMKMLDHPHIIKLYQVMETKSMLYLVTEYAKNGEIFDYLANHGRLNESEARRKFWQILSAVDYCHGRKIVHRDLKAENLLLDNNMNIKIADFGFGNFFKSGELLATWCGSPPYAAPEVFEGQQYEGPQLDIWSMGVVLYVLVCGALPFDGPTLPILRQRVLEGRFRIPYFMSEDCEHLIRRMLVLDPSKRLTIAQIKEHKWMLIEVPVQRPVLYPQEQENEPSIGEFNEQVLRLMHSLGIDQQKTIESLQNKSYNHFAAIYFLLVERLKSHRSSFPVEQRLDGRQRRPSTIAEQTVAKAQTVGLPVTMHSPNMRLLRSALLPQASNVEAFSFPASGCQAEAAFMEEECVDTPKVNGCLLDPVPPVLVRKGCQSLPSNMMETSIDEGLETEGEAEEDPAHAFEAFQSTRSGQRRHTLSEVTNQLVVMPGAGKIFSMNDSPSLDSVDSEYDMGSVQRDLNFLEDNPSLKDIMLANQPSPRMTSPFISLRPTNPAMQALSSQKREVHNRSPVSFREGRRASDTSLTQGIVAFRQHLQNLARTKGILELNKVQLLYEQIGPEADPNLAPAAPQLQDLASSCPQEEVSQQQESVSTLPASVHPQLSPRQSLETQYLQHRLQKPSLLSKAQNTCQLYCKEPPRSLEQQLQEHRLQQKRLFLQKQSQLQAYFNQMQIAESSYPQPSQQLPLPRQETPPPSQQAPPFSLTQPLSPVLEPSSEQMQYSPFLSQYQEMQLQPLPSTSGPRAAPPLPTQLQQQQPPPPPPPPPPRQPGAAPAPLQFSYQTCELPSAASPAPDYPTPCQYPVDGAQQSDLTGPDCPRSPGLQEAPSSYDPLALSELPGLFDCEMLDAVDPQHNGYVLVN

| Compound | IC50 (SIK1) [nM] | IC50 (SIK2) [nM] | IC50 (SIK3) [nM] | EC50 [1] [nM] |
| --- | --- | --- | --- | --- |
| COc1cc(-c2cnn3cc(C(C)(C)OCCN4CCOCC4)ccc23)cc(OC(F)F)c1C(=O)N[C@@H]1C[C@@H]1F [Cpd 255, 2-(difluoromethoxy)-N-[(1R,2S)-2-fluorocyclopropyl]-6-methoxy-4-[6-[1-methyl-1-(2-morpholinoethoxy)ethyl]pyrazolo[1,5-a]pyridin-3-yl]benzamide] | > 500 | > 500 | 10 to 100 | 100 to 1000 |
| COc1cc(-c2cnn3cc(C(C)(C)COCC4COC4)ccc23)cc(OC(F)F)c1C(=O)N[C@@H]1C[C@@H]1F [Cpd 262, 2-(difluoromethoxy)-4-[6-[1,1-dimethyl-2-(oxetan-3-ylmethoxy)ethyl]pyrazolo[1,5-a]pyridin-3-yl]-N-[(1R,2S)-2-fluorocyclopropyl]-6-methoxy-benzamide] | > 500 | > 500 | 0.01 to 10 | 100 to 1000 |
| COc1cc(-c2cnn3cc(C(C)(C)COC4COC4)ccc23)cc(OC(F)F)c1C(=O)N[C@@H]1C[C@@H]1F [Cpd 265, 2-(difluoromethoxy)-4-[6-[1,1-dimethyl-2-(oxetan-3-yloxy)ethyl]pyrazolo[1,5-a]pyridin-3-yl]-N-[(1R,2S)-2-fluorocyclopropyl]-6-methoxy-benzamide] | > 500 | > 500 | 10 to 100 | 100 to 1000 |
| COc1cc(-c2cnn3cc(C(C)(C)NCCO)ccc23)cc(OC(F)F)c1C(=O)N[C@@H]1C[C@@H]1F [Cpd 268, 2-(difluoromethoxy)-N-[(1R,2S)-2-fluorocyclopropyl]-4-[6-[1-(2-hydroxyethylamino)-1-methyl-ethyl]pyrazolo[1,5-a]pyridin-3-yl]-6-methoxy-benzamide] | > 500 | > 500 | 10 to 100 | 100 to 1000 |
| COC(=O)NC1(c2ccc3c(-c4cc(OC)c(C(=O)N[C@@H]5C[C@@H]5F)c(OC(F)F)c4)cnn3c2)CCC1 [Cpd 272, methyl N-[1-[3-[3-(difluoromethoxy)-4-[[(1R,2S)-2-fluorocyclopropyl]carbamoyl]-5-methoxy-phenyl]pyrazolo[1,5-a]pyridin-6-yl]cyclobutyl]carbamate] | > 500 | > 500 | 10 to 100 | 100 to 1000 |
| CNC(=O)C1(c2ccc3c(-c4cc(OC)c(C(=O)N[C@@H]5C[C@@H]5F)c(OC(F)F)c4)cnn3c2)CCC1 [Cpd 273, 2-(difluoromethoxy)-N-[(1R,2S)-2-fluorocyclopropyl]-6-methoxy-4-[6-[1-(methylcarbamoyl)cyclobutyl]pyrazolo[1,5-a]pyridin-3-yl]benzamide] | > 500 | > 500 | 10 to 100 | 100 to 1000 |

The next lines start with the values.

| IC50 (SIK1) [nM] | IC50 (SIK2) [nM] | IC50 (SIK3) [nM] | EC50 [1] [nM] | Compound |
| --- | --- | --- | --- | --- |
| > 500 | > 500 | 10 to 100 | 100 to 1000 | COc1cc(-c2cnn3cc(C(C)(C)c4nc(C)no4)ccc23)cc(OC(F)F)c1C(=O)NC1CC1 [Cpd 248, N-cyclopropyl-2-(difluoromethoxy)-6-methoxy-4-[6-[1-methyl-1-(3-methyl-1,2,4-oxadiazol-5-yl)ethyl]pyrazolo[1,5-a]pyridin-3-yl]benzamide] |
| > 500 | 100 to 500 | 0.01 to 10 | 100 to 1000 | COc1cc(-c2cnn3cc(C4(C#N)CCC4)ccc23)cc(OC(F)F)c1C(=O)N[C@@H]1C[C@@H]1F [Cpd 250, 4-[6-(1-cyanocyclobutyl)pyrazolo[1,5-a]pyridin-3-yl]-2-(difluoromethoxy)-N-[(1R,2S)-2-fluorocyclopropyl]-6-methoxy-benzamide] |
| > 500 | > 500 | 0.01 to 10 | 100 to 1000 | COc1cc(-c2cnn3cc(C(C)(C)COCC(=O)N(C)C)ccc23)cc(OC(F)F)c1C(=O)N[C@@H]1C[C@@H]1F [Cpd 251, 2-(difluoromethoxy)-4-[6-[2-[2-(dimethylamino)-2-oxo-ethoxy]-1,1-dimethyl-ethyl]pyrazolo[1,5-a]pyridin-3-yl]-N-[(1R,2S)-2-fluorocyclopropyl]-6-methoxy-benzamide] |
| > 500 | > 500 | 0.01 to 10 | 100 to 1000 | CNC(=O)COCC(C)(C)c1ccc2c(-c3cc(OC)c(C(=O)N[C@@H]4C[C@@H]4F)c(OC(F)F)c3)cnn2c1 [Cpd 253, 2-(difluoromethoxy)-4-[6-[1,1-dimethyl-2-[2-(methylamino)-2-oxo-ethoxy]ethyl]pyrazolo[1,5-a]pyridin-3-yl]-N-[(1R,2S)-2-fluorocyclopropyl]-6-methoxy-benzamide] |

— patent US12391679B2, “Benzamide-substituted bicyclic imidazo- and pyrazolo-fused -pyridine, -pyrimide, and -pyridazine compounds for treatment of inflammatory diseases” (ONCO3R Therapeutics BV, priority 2019, dated 2025)
